Source: US20230293526A1, “METHOD FOR TREATING CANCER WITH A REVERSE TRANSCRIPTASE INHIBITOR” (PrimeFour Therapeutics, Inc., priority 2020, published 2023)

How the values were obtained:
Assay in all cases: Cell proliferation CellTiterGlo Ex.2
Type in all cases: cell-based
COR-L279 = settings: Homo sapiens; COR-L279 (Lung), 72 h
Description: (§1) A dose response relationship on cell proliferation was assessed for Compound 13 on 140 tumor cell lines. Briefly, compound treatment of cells started one day after seeding with a final DMSO concentration of 0.100, and was performed by nanodrop-dispensing using a Tecan Dispenser. 0.10% DMSO (solvent) and Staurosporine (10 μM) served as high control (10000 viability) and low control (000 viability), respectively. Compound 13 was tested at 10, 3, 1, 0.3, 0.1, 0.03, 0.01, and 0.003 μM.
(§2) Cells were cultured in the appropriate media. For the assays, cells were seeded in white cell culture-treated flat and clear bottom multiwell plates and incubated at 37° C. overnight before compound was added. After incubation for 72 h at 37° C. at 5% or 10% CO2 dependent on the medium, cell plates were equilibrated to room temperature for one hour, CellTiterGlo reagent (Promega) was added and luminescence was measured approximately an hour later using a luminometer.
(§3) Raw data were converted into percent cell viability relative to the high and low control, which were set to 10000 and 000, respectively.

COV434 = COV434 (Ovary), 72 h
Description: as §1, §2, §3

Colo 205 = settings: Homo sapiens; Colo 205 (Colon), 72 h
Description: as §1, §2, §3

DLD-1 = settings: Homo sapiens; DLD-1 (Colon), 72 h
Description: as §1, §2, §3

EFM-19 = settings: Homo sapiens; EFM-19 (Breast), 72 h
Description: as §1, §2, §3

EPLC-272H = settings: Homo sapiens; EPLC-272H (Lung), 72 h
Description: as §1, §2, §3

H4 = H4 (Brain), 72 h
Description: as §1, §2, §3

HCC827 = settings: Homo sapiens; HCC827 (Lung), 72 h
Description: as §1, §2, §3

HCT116 = settings: Homo sapiens, HCT-116; HCT116 (Colon), 72 h
Description: as §1, §2, §3

HT-29 = settings: Homo sapiens; HT-29 (Colon), 72 h
Description: as §1, §2, §3

JIMT-1 = settings: Homo sapiens; JIMT-1 (Breast), 72 h
Description: as §1, §2, §3

KARPAS 299 = settings: Homo sapiens; KARPAS 299 (Blood), 72 h
Description: as §1, §2, §3

KG-1 = settings: Homo sapiens; KG-1 (Blood), 72 h
Description: as §1, §2, §3

LN229 = settings: Homo sapiens, LN-229; LN229 (Brain), 72 h
Description: as §1, §2, §3

LnCap = settings: Homo sapiens; LnCap (Prostate), 72 h
Description: as §1, §2, §3

MCAS = MCAS (Ovary), 72 h
Description: as §1, §2, §3

MCF-7 = settings: Homo sapiens, MCF7; MCF-7 (Breast), 72 h
Description: as §1, §2, §3

MDA MB 231 = settings: Homo sapiens; MDA MB 231 (Breast), 72 h
Description: as §1, §2, §3

MKN-1 = settings: Homo sapiens; MKN-1 (Stomach), 72 h
Description: as §1, §2, §3

NCI-H1703 = settings: Homo sapiens; NCI-H1703 (Lung), 72 h
Description: as §1, §2, §3

NCI-H82 = settings: Homo sapiens; NCI-H82 (Lung), 72 h
Description: as §1, §2, §3

OCI-AML3 = settings: Homo sapiens, OCI-AML-3; OCI-AML3 (Blood), 72 h
Description: as §1, §2, §3

OVCAR-3 = settings: Homo sapiens; OVCAR-3 (Ovary), 72 h
Description: as §1, §2, §3

RERF-LC-Ad2 = RERF-LC-Ad2 (Lung), 72 h
Description: as §1, §2, §3

RL95-2 = settings: Homo sapiens; RL95-2 (Endometrium), 72 h
Description: as §1, §2, §3

SJSA-1 = settings: Homo sapiens; SJSA-1 (Bone), 72 h
Description: as §1, §2, §3

SK-ES-1 = settings: Homo sapiens, SK-ES1; SK-ES-1 (Bone), 72 h
Description: as §1, §2, §3

SK-LU-1 = settings: Homo sapiens; SK-LU-1 (Lung), 72 h
Description: as §1, §2, §3

SNU-216 = SNU-216 (Stomach), 72 h
Description: as §1, §2, §3

SW620 = settings: Homo sapiens, SW-620; SW620 (Colon), 72 h
Description: as §1, §2, §3

Saos-2 EC = settings: Homo sapiens; Saos-2 EC (Bone), 72 h
Description: as §1, §2, §3

SiHa = settings: Homo sapiens; SiHa (Cervix), 72 h
Description: as §1, §2, §3

U251MG = settings: Homo sapiens, U-251; U251MG (Brain), 72 h
Description: as §1, §2, §3

SMILES: C#C[C@]1(CO)O[C@@H](n2cnc3c(=O)[nH]c(N)nc32)C[C@@H]1O [compound 13]
- IC50 (COR-L279): > 10 µM
- IC50 (COV434): 4.41 µM
- IC50 (Colo 205): 1500 nM
- IC50 (DLD-1): > 10 µM
- IC50 (EFM-19): 2650 nM
- IC50 (EPLC-272H): 6.63 µM
- IC50 (H4): > 10 µM
- IC50 (HCC827): 4.47 µM
- IC50 (HCT116): 5.84 µM
- IC50 (HT-29): > 10 µM
- IC50 (JIMT-1): 7 µM
- IC50 (KARPAS 299): 4.07 µM
- IC50 (KG-1): > 10 µM
- IC50 (LN229): 2230 nM
- IC50 (LnCap): > 10 µM
- IC50 (MCAS): > 10 µM
- IC50 (MCF-7): > 10 µM
- IC50 (MDA MB 231): 3.85 µM
- IC50 (MKN-1): 8.76 µM
- IC50 (NCI-H1703): 9.16 µM
- IC50 (NCI-H82): 6.46 µM
- IC50 (OCI-AML3): 7.15 µM
- IC50 (OVCAR-3): 1160 nM
- IC50 (RERF-LC-Ad2): 2580 nM
- IC50 (RL95-2): 5.38 µM
- IC50 (SJSA-1): 6.44 µM
- IC50 (SK-ES-1): 4.99 µM
- IC50 (SK-LU-1): > 10 µM
- IC50 (SNU-216): 1740 nM
- IC50 (SW620): 7.21 µM
- IC50 (Saos-2 EC): 3.99 µM
- IC50 (SiHa): 2450 nM
- IC50 (U251MG): > 10 µM
